Key:
NF-κB p65 = details: TNF-α 10 ng/mL; FFD 10 μM, TFD 1 μM
cPLA2 [1] = target: cPLA2 (Homo sapiens, UniProt P47712); details: 293 T cells transfected with Flag-tagged mutants; N-terminal C2D and CD1 deletion
Description: (§1) DARTS assay. Drug affinity responsive target stability (DARTS) assay was performed based on previously reported methods^4. In brief, cell lysate was extracted by M-PER™ Mammalian Protein Extraction Reagent (78501, Thermo Fisher), briefly centrifuged, and mixed with drugs or DMSO for 1 hour on a rotator. Pronase (P5147, Sigma-Aldrich) was added in the mixture for 15 minutes at room temperature. Digestion was stopped by 10 minute incubation with protease inhibitor cocktail on ice. Samples were boiled in SDS loading buffer for SDS-PAGE and Western blot.
(§2) Site-directed mutagenesis.
(§3) Construction of plasmids. The construction of cPLA2 mutant plasmids was based on serial C-terminal and N-terminal deletion of the amino acid sequences associated with functional structure. Each plasmid carried a flag tag. The constructions were: full length cPLA2 (1-750), cPLA2 (126-750), cPLA2 (406-750), cPLA2 (1-479), and cPLA2 (1-144).
Target sequence in this assay (P47712 126-749): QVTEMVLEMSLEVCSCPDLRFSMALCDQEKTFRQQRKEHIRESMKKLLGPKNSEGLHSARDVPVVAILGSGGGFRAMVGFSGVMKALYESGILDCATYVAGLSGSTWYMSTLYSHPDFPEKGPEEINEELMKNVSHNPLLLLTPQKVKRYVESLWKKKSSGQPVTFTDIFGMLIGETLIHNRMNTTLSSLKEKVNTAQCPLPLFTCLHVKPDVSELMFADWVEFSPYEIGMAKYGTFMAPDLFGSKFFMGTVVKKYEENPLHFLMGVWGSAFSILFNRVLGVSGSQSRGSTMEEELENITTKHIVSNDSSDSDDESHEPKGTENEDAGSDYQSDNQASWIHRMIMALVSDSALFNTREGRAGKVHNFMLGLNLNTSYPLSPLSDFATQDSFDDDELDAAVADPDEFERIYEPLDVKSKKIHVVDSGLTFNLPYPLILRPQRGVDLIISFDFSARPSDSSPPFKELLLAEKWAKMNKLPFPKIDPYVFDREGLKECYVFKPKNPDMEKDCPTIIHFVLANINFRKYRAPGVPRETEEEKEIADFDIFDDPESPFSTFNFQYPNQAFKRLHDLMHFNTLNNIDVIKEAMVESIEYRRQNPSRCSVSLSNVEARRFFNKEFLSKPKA

cPLA2 [2] = target: cPLA2 (Homo sapiens, UniProt P47712); details: 293 T cells transfected with Flag-tagged mutants
Description: as §1, §2, §3
Target sequence in this assay (P47712 1-479): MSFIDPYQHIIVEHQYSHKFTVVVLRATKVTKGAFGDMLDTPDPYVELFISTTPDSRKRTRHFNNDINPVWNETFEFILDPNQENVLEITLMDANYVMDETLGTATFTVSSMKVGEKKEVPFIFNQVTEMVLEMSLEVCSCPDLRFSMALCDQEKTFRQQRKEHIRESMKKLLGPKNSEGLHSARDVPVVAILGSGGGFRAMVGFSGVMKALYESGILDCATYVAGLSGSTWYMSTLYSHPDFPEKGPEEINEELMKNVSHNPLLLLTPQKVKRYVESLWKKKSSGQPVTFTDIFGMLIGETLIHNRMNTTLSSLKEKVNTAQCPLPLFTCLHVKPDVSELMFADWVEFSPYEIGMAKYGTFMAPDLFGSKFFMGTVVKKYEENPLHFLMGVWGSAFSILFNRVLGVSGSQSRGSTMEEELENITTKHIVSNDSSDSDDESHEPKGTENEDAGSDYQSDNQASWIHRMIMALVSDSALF

cPLA2 [3] = target: cPLA2 (Homo sapiens, UniProt P47712, S505A); details: 293 T cells transfected with point mutant plasmid
Description: as §1, §2, §3

cPLA2 [4] = details: series of protease to cell lysate ratios
Description: as §1, §2, §3

[5] = tested on: TNF-α-activated NF-κB reporter gene; assay: NF-κB luciferase reporter in control and cPLA2 knockout Raw264.7 cells; type: cell-based
Description: Screening FDA approved drugs in vitro. NF-κB-bla THP-1 cell line (K1662, Invitrogen) was cultured in 96-well plates and FDA approved drugs (10 μM, L1300, Selleckchem) were added and cultured overnight. Next day, cells were incubated with TNF-α (10 ng/ml, PHC3015, Invitrogen) for 6 hours and LiveBLAzer™ FRET-B/G Loading Kit with CCF2-AM (K1095, Invitrogen) was used to detect the β-lactamase activity via SpectraMax i3x system (5025027A Molecular Devices) with excitation wavelength at 409 nm and emission wavelengths at 520 nm or 470 nm. This process was performed in triplicate. Subsequently, the drugs from first screening that could inhibit TNF-α induced NF-κB activity underwent further screening by NF-κB luciferase assay. After transfection with NF-κB luciferase reporter gene and Renilla plasmids for 8 hours, cells were treated with drugs (10 μM) overnight, followed by TNF-α (10 ng/ml) stimulation for 6 hours, then bioluminescence was measured by Dual-Luciferase® Reporter Assay kit (E1910, Promega). The data were analyzed by Graphpad Prism software (GraphPad Software, San Diego, Calif.).
Knock out of cPAL2 by CRISPR-Cas9. Knockout cells were generated in accordance with a previously published protocol. gRNA was inserted into the lentiCRISPR v2 vector. Packaging the inserted vector into lentivirus was completed by co-transfecting the lentiCRISPR v2, VSVG and ΔR6.7 in 293T cells. After packaging, we transfected the virus into RAW264.7 cells over 8 hours. Puromycin (2 μg/ml) was used to select the stably transfected RAW264.7 cells

cPLA2 [6] = target: T1, cPLA2 (Mus musculus, UniProt P47713); assay: Western blot of TNF activated phosphorylation of cPLA2 on Ser-505 in BMDMs; type: cell-based, mice; parameters: endogenous in cells; host or cells: mouse bone marrow derived macrophages (BMDMs); details: TNF-α 10 ng/mL; FFD 10 μM
T1 sequence (P47713 1-748): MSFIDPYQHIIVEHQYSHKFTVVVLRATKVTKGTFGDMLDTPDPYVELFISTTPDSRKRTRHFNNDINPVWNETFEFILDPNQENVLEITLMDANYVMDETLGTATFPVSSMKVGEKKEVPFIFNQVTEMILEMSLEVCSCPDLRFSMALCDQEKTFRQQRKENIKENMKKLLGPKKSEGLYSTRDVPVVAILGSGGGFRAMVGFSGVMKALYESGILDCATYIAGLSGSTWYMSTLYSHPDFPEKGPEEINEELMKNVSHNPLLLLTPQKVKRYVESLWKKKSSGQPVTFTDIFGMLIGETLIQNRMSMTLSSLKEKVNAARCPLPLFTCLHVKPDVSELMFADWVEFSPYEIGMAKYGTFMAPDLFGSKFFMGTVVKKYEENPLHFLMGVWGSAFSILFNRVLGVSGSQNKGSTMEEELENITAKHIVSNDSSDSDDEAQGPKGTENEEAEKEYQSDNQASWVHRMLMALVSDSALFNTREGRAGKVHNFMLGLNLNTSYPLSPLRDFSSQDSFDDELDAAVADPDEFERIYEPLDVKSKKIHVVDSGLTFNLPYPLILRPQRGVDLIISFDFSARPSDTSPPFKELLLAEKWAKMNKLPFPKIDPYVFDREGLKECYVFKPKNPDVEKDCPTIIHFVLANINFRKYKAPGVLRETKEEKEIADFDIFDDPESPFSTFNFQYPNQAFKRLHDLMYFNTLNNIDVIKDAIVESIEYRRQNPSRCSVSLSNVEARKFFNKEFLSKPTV
Description: (§4) Primary bone marrow derived macrophages (BMDMs) extraction. BMDMs were isolated from C57BL/6 and TNF-tg mice. After mice were sacrificed by cervical dislocation, the tibia and femur were isolated and both ends of the bones were cut to open the medullary cavity. Bone marrow cells were collected by centrifuge at 13000 g for 90 seconds and seeded in 6-well plates. Prior to their use in experiments, M-CSF (10 ng/ml, 576406, Biolegend) was added for 6 days to the BMDM culture medium.
(§5) Western blot. After protein samples were prepared, samples were separated by SDS-PAGE and transferred to a nitrocellulose (NC) membrane (162-0115, BIO-RAD) using a wet transfer system. Membrane was blocked in 5% (w/v) non-fat milk in TBST for half an hour at room temperature, followed by incubation with appropriate primary antibody overnight at 4° C. After washing, appropriate secondary antibody was added for 1 hour at room temperature. The bands on the membrane were developed by chemiluminescent (ECL) substrate and visualized by GelDoc system.

p38 or ERK1/2 = assay: Western blot of TNF activated phosphorylation of p38 and ERK1/2 in BMDMs; type: cell-based, mice; details: TNF-α 10 ng/mL; FFD 10 μM
Description: as §4, §5

IκB-α = assay: Phosphorylation of IκB-α in vivo (data not shown)

cPLA2 (Homo sapiens, UniProt P47712, S505A), sequence (P47712 whole entry S505A): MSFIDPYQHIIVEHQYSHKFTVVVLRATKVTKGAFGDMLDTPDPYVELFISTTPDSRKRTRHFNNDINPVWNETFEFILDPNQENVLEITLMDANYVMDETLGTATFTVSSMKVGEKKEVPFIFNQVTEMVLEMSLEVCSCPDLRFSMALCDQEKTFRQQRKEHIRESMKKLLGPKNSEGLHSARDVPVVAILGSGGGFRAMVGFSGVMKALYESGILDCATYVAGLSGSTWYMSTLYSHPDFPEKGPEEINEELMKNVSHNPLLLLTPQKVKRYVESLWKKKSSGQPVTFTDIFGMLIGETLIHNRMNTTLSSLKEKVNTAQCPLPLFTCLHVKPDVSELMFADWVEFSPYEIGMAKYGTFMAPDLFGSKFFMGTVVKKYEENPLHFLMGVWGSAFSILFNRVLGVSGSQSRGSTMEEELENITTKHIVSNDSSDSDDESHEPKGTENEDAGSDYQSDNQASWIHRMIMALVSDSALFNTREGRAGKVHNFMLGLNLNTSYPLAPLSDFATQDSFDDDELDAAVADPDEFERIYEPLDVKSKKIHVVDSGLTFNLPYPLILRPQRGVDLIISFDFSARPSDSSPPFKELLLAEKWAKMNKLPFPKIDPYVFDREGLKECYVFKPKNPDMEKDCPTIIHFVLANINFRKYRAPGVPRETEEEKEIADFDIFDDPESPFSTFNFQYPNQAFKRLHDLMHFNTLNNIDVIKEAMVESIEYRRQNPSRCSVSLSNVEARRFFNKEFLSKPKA

- TNF-α-induced nuclear translocation and DNA-binding activity of p65 (NF-κB p65): inhibited
- DARTS protective effects on cPLA2 (126-750) and cPLA2(406-750) (cPLA2 [1]): retained protective effects
- DARTS protective effects on mutants lacking the CD2 domain, cPLA2 (1-479) and cPLA2 (1-144) (cPLA2 [2]): did not show any protective effects
- DARTS protective effect on Ser-505 to Ala point mutant of cPLA2 (cPLA2 [3]): lost its protective effect
- phosphorylation of cPLA2 on Ser-505 (cPLA2 [6]): abolished
Structure (SMILES): CC(C)(C(=O)O)c1ccc(C(O)CCCN2CCC(C(O)(c3ccccc3)c3ccccc3)CC2)cc1 (centres unmarked) [fexofenadine]
- protection of cPLA2 from protease (DARTS, Western blot) (cPLA2 [4]): protected
- inhibition of TNF-α-activated NF-κB reporter gene in cPLA2 knockout cells ([5]; cPLA2 knockout cells): lost its inhibition
- anti-TNF/NF-κB activity in cPLA2 knockout cells transfected with cPLA2 S505A ([5]; point mutant Ser-505-Ala): could not rescue
- anti-TNF/NF-κB activity in cPLA2 knockout cells transfected with a cPLA2 expression plasmid ([5]; re-established expression of cPLA2): reinstated
- phosphorylation of p38 or ERK1/2 (p38 or ERK1/2): did not affect
- phosphorylation of NF-κB p65 upstream mediator IκB-α in vivo (IκB-α): inhibited

Source: patent US20200022964A1, “COMPOSITIONS AND METHODS FOR TREATMENT OF INFLAMMATORY AUTOIMMUNE DISEASES” (New York University, priority 2018, published 2020)
